# Test results published in patent US20250129096A1, “ANNULATED 2-AMINO-3-CYANO THIOPHENES AND DERIVATIVES FOR THE TREATMENT OF CANCER” (Boehringer Ingelheim Int'l GmbH Corp., priority 2021, published 2025).
# System: NCI-H358 cells (NSCLC, G12C)
# Assay: NCI-H358 CTG proliferation assay (120 h), assay 1
# Format: cell-based
# Conditions: Homo sapiens, CellTiter-Glo, 96 well, 2000 cells per well
# Method: NCI-1H358 cells (ATCC No. CRL-5807) are dispensed into white bottom opaque 96 well plates (Perkin Elmer cat no. 5680) at a density of 2000 cells per well in 100 μL RPM 1-1640 ATCC-Formulation (Gibco #A10491)+10% FCS (fetal calf serum) (assay 1) or into black 384-well plates, flat and clear bottom (Greiner, PNr. 781091) at a density of 200 cells per well in 60 μl RPMI-1640 ATCC-Formulation (Gibco #A10491)+10% FCS (fetal calf serum) (assay 2). […] Compounds (10 mM stock in DMSO) are added at logarithmic dose series using the HP Digital Dispenser D300 (Tecan) (assay 1) or the ECHO acoustic liquid handler system (Beckman Coulter) (assay 2), normalizing for added DMSO and including DMSO controls. For the TO time point measurement, untreated cells are analyzed at the time of compound addition. Plates are incubated for 120 h, and cell viability is measured using CellTiter-Glo luminescent cell viability reagent (Promega product code G7570). Viability (stated as percent of control) is defined as relative luminescence units RLU of each well divided by the RLU of cells in DMSO controls. IC50 values are determined from viability measurements by non-linear regression using a four-parameter model.
smiles,measurement,value
C[C@H]1CNCCN1c1nccc(-c2noc3c2CCC[C@@]32CCCc3sc(N)c(C#N)c32)n1 [IIf-1],IC50,831 nM
